Assay results: patent publication US4452741A, “A-39183 Antibiotics and process for production thereof” (Eli Lilly and Company, priority 1983, dated 1984)
≈ marks a conversion by molar mass, not a printed value. Where two headings read alike, the source gives them in different places.

Tests used:
[1] = test system: Actinomyces israelii W855; test: MIC, anaerobic bacteria; assay type: cell-based
[2] = test system: Peptostreptococcus intermedius 1264; test: MIC, anaerobic bacteria; assay type: cell-based
[3] = test system: Bacteroides melaninogenicus 2736; test: MIC, anaerobic bacteria; assay type: cell-based
Peptococcus prevoti 1281 = test: MIC, anaerobic bacteria; assay type: cell-based
[4] = test system: Bacteroides thetaiotaomicron 1438; test: MIC, anaerobic bacteria; assay type: cell-based
Description: (§1) The agar-dilution procedure described by the International Collaborative Study (ICS) group was used to determine MIC values.

[5] = test system: Clostridium septicum 1128; test: MIC, anaerobic bacteria; assay type: cell-based
Description: as §1

[6] = test system: Staphylococcus aureus 3055; test: agar-dilution MIC; assay type: cell-based
Description: as §1

[7] = test system: Bacteroides vulgatis 1211; test: MIC, anaerobic bacteria; assay type: cell-based
electrometric titration = assay type: physicochemical; conditions: 66% dimethylformamide in water
Protocol: Antibiotic A-39183 factor A is a yellow, crystalline solid, having a molecular weight of 598.58, as determined by mass spectrometry, and an approximate elemental analysis as follows: 67.95% carbon, 5.20% hydrogen, and 26.79% oxygen. […] A-39183 factor A has the following specific rotation: [α]D^25 +18.9° (c 9.52, trifluoroethanol).
Antibiotic A-39183 factor b is a red, crystalline solid having a molecular weight of 580, as determined by mass spectrometry, and an approximate elemental analysis as follows: 70.56% carbon, 4.97% hydrogen, and 24.57% oxygen. […] A-39183 factor B has the following specific rotation: [α]D^25 +576.9° (c 8.85, trifluoroethanol).

[8] = test system: Bacteroides corrodens 1874; test: MIC, anaerobic bacteria; assay type: cell-based
[9] = test system: Eubacterium aerofaciens 1235; test: MIC, anaerobic bacteria; assay type: cell-based; conditions: Collinsella aerofaciens
[10] = test system: Bacteroides fragilis 1936B; test: MIC, anaerobic bacteria; assay type: cell-based
[11] = test system: Peptococcus asaccharolyticus 1302; test: MIC, anaerobic bacteria; assay type: cell-based; conditions: Peptoniphilus asaccharolyticus
[12] = test system: Bacteroides melaninogenicus 1856/28; test: MIC, anaerobic bacteria; assay type: cell-based; conditions: Prevotella intermedia
[13] = test system: Clostridium perfringens 81; test: microbe, parasite or virus in culture; assay type: cell-based
[14] = test system: Fusobacterium necrophorum 6054A; test: MIC, anaerobic bacteria; assay type: cell-based
solubility = assay type: physicochemical; conditions: organic solvents
[15] = test system: Propionibacterium acnes 79; test: MIC, anaerobic bacteria; assay type: cell-based; conditions: Cutibacterium acnes
[16] = test system: Bacteroides fragilis 1877; test: MIC, anaerobic bacteria; assay type: cell-based
[17] = test system: Fusobacterium symbiosum 1470; test: MIC, anaerobic bacteria; assay type: cell-based
[18] = test system: Peptostreptococcus anaerobius 1428; test: MIC, anaerobic bacteria; assay type: cell-based
Bacteroides fragilis 111 = test: MIC, anaerobic bacteria; assay type: cell-based
[19] = test system: Streptococcus faecalis X66; test: agar-dilution MIC; assay type: cell-based; conditions: Enterococcus faecalis
Bacteroides fragilis 106 = test: MIC, anaerobic bacteria; assay type: cell-based
[20] = test system: Bacteroides vulgatis 1563; test: MIC, anaerobic bacteria; assay type: cell-based
Bacteroides fragilis 104 = test: MIC, anaerobic bacteria; assay type: cell-based
Bacteroides fragilis 103 = test: MIC, anaerobic bacteria; assay type: cell-based
Bacteroides fragilis 107 = test: MIC, anaerobic bacteria; assay type: cell-based
Bacteroides fragilis 62 = test: MIC, anaerobic bacteria; assay type: cell-based
Bacteroides fragilis 9 = test: MIC, anaerobic bacteria; assay type: cell-based
Bacteroides fragilis 108 = test: MIC, anaerobic bacteria; assay type: cell-based
[21] = test system: Bacteroides thetaiotaomicron 1900A; test: MIC, anaerobic bacteria; assay type: cell-based
[22] = test system: Streptococcus pyogenes C203; test: disc-plate zone of inhibition; assay type: cell-based; conditions: 6 mm discs, read-out: Zone Diameter
Protocol: (§2) Agar plates, inoculated with the test organism, were used; 6 mm. discs (0.02 ml. capacity) were saturated from log 2 dilutions of the antibiotic solution. Disc content was 1/5 or 1/50 of the concentration of the solution used, i.e., disc content of […] 30 μg. was obtained from a solution of 1500 μg./ml. concentration.

[23] = test system: Streptococcus sp. (Group D) 9960; test: disc-plate zone of inhibition; assay type: cell-based; conditions: 6 mm discs, read-out: Zone Diameter
Protocol: as §2

[24] = test system: Staphylococcus aureus 3130; test: disc-plate zone of inhibition; assay type: cell-based; conditions: benzylpenicillin-resistant, methicillin-resistant, 6 mm discs, read-out: Zone Diameter
Protocol: as §2

[25] = test system: Streptococcus pneumoniae Park I; test: disc-plate zone of inhibition; assay type: cell-based; conditions: 6 mm discs, read-out: Zone Diameter
Protocol: as §2

[26] = test system: Staphylococcus aureus 3055; test: disc-plate zone of inhibition; assay type: cell-based; conditions: benzylpenicillin-susceptible, 6 mm discs, read-out: Zone Diameter
Protocol: as §2

[27] = test system: Staphylococcus aureus 3074; test: disc-plate zone of inhibition; assay type: cell-based; conditions: benzylpenicillin-resistant, 6 mm discs, read-out: Zone Diameter
Protocol: as §2

[28] = test system: Bacteroides fragilis 1451; test: MIC, anaerobic bacteria; assay type: cell-based
Bacteroides fragilis 110 = test: MIC, anaerobic bacteria; assay type: cell-based
Bacteroides fragilis 2 = test: MIC, anaerobic bacteria; assay type: cell-based
Bacteroides fragilis 113 = test: MIC, anaerobic bacteria; assay type: cell-based
[29] = test system: Bacteroides fragilis 1470; test: MIC, anaerobic bacteria; assay type: cell-based
[30] = test system: Staphylococcus aureus 3074; test: agar-dilution MIC; assay type: cell-based; conditions: agar-dilution method, benzylpenicillin-resistant
Bacteroides fragilis 112 = test: MIC, anaerobic bacteria; assay type: cell-based
[31] = Bacteroides thetaiotaomicron, 1438, Bacteroides thetaiotaomicron 1438, first listing, read-out: MIC
[32] = Eikenella corrodens, 1874, Bacteroides corrodens 1874, first listing
[33] = Bacteroides fragilis, 1877, Bacteroides fragilis 1877, first listing
[34] = Bacteroides fragilis, 111, Bacteroides fragilis 111, first listing

## CC(=O)C1c2c(c(O)c3c(O)cccc3c2-c2c3c(c(O)c4c(O)cccc24)C(=O)CC(C)(O)C3C(C)=O)C(=O)CC1(C)O (centres unmarked) [A-39183 factor A]
[1]
  MIC: ≤ 0.5 µg/mL
[2]
  MIC: 32 µg/mL (≈ 53.5 µM)
[3]
  MIC: 16 µg/mL (≈ 26.7 µM)
Peptococcus prevoti 1281
  MIC: 32 µg/mL (≈ 53.5 µM)
[4]; [31]
  MIC: 16 µg/mL (≈ 26.7 µM)
[5]
  MIC: 16 µg/mL (≈ 26.7 µM)
[6]; agar-dilution method, benzylpenicillin-susceptible, read-out: MIC
  MIC: 32 µg/mL (≈ 53.5 µM)
[7]
  MIC: 32 µg/mL (≈ 53.5 µM)
Electrometric titration; pH 4.81, 66% dimethylformamide in water, initial pH 4.81, read-out: pKa (first titratable group)
  pKa: ~6.75
Electrometric titration; pH 4.81, 66% dimethylformamide in water, initial pH 4.81, read-out: pKa (second titratable group)
  pKa: ~8.43
[8]; [32]
  MIC: 32 µg/mL (≈ 53.5 µM)
[9]
  MIC: 32 µg/mL (≈ 53.5 µM)
[10]
  MIC: 32 µg/mL (≈ 53.5 µM)
[11]
  MIC: 64 µg/mL (≈ 107 µM)
[12]
  MIC: > 128 µg/mL
[13]
  MIC: 32 µg/mL (≈ 53.5 µM)
[14]
  MIC: 16 µg/mL (≈ 26.7 µM)
solubility
  solubility (soluble): soluble in acetone, ethyl acetate, chloroform, dimethylformamide, dimethyl sulfoxide, and trifluoroethanol
[15]
  MIC: 32 µg/mL (≈ 53.5 µM)
[16]; [33]
  MIC: 32 µg/mL (≈ 53.5 µM)
[17]
  MIC: 64 µg/mL (≈ 107 µM)
[18]
  MIC: 64 µg/mL (≈ 107 µM)
Bacteroides fragilis 111; [34]
  MIC: 32 µg/mL (≈ 53.5 µM)
[19]; agar-dilution method, read-out: MIC
  MIC: 32 µg/mL (≈ 53.5 µM)

## CC(=O)c1c(C)cc(O)c2c(O)c3c(O)cccc3c(-c3c4c(c(O)c5c(O)cccc35)C(=O)CC(C)(O)C4C(C)=O)c12 (centres unmarked) [A-39183 factor B]
[1]
  MIC: ≤ 0.5 µg/mL
[2]
  MIC: 2 µg/mL (≈ 3.44 µM)
[3]
  MIC: 4 µg/mL (≈ 6.89 µM)
Peptococcus prevoti 1281
  MIC: 8 µg/mL (≈ 13.8 µM)
Bacteroides fragilis 106
  MIC: 4 µg/mL (≈ 6.89 µM)
[4]; [31]
  MIC: 16 µg/mL (≈ 27.6 µM)
[4]; Bacteroides thetaiotaomicron, 1438, Bacteroides thetaiotaomicron 1438, second listing
  MIC: 4 µg/mL (≈ 6.89 µM)
[5]
  MIC: 2 µg/mL (≈ 3.44 µM)
[6]
  MIC: 0.5 µg/mL (≈ 0.861 µM)
[20]
  MIC: 8 µg/mL (≈ 13.8 µM)
Bacteroides fragilis 104
  MIC: 4 µg/mL (≈ 6.89 µM)
[7]
  MIC: 2 µg/mL (≈ 3.44 µM)
Electrometric titration; pH 4.03, 66% dimethylformamide in water, initial pH 4.03, read-out: pKa (first titratable group)
  pKa: ~6.68
Electrometric titration; pH 4.03, 66% dimethylformamide in water, initial pH 4.03, read-out: pKa (second titratable group)
  pKa: ~8.42
Bacteroides fragilis 103
  MIC: 4 µg/mL (≈ 6.89 µM)
Bacteroides fragilis 107
  MIC: 4 µg/mL (≈ 6.89 µM)
Bacteroides fragilis 62
  MIC: 1 µg/mL (≈ 1.72 µM)
[8]; [32]
  MIC: 1 µg/mL (≈ 1.72 µM)
[8]; Eikenella corrodens, 1874, Bacteroides corrodens 1874, second listing
  MIC: 4 µg/mL (≈ 6.89 µM)
Bacteroides fragilis 9
  MIC: 4 µg/mL (≈ 6.89 µM)
[9]
  MIC: 8 µg/mL (≈ 13.8 µM)
[10]
  MIC: 2 µg/mL (≈ 3.44 µM)
[11]
  MIC: 32 µg/mL (≈ 55.1 µM)
[12]
  MIC: > 128 µg/mL
Bacteroides fragilis 108
  MIC: 4 µg/mL (≈ 6.89 µM)
[13]
  MIC: 8 µg/mL (≈ 13.8 µM)
[21]
  MIC: 16 µg/mL (≈ 27.6 µM)
[14]
  MIC: ≤ 0.5 µg/mL
[22]; 30 μg/disc
  zone of inhibition at 30 µg/disc: 8 mm
[22]; 300 μg/disc
  zone of inhibition at 300 µg/disc: 10 mm
[23]; 30 μg/disc
  zone of inhibition at 30 µg/disc: 0 mm
[23]; 300 μg/disc
  zone of inhibition at 300 µg/disc: 9.1 mm
[24]; 30 μg/disc
  zone of inhibition at 30 µg/disc: 13.4 mm
[24]; 300 μg/disc
  zone of inhibition at 300 µg/disc: 14 mm
[25]; 30 μg/disc
  zone of inhibition at 30 µg/disc: 0 mm
[25]; 300 μg/disc
  zone of inhibition at 300 µg/disc: 9.1 mm
[26]; 30 μg/disc
  zone of inhibition at 30 µg/disc: 0 mm
[26]; 300 μg/disc
  zone of inhibition at 300 µg/disc: 0 mm
[27]; 30 μg/disc
  zone of inhibition at 30 µg/disc: 14.8 mm
[27]; 300 μg/disc
  zone of inhibition at 300 µg/disc: 15.8 mm
[28]
  MIC: 4 µg/mL (≈ 6.89 µM)
solubility
  solubility (soluble): soluble in the same solvents as factor A
Bacteroides fragilis 110
  MIC: 4 µg/mL (≈ 6.89 µM)
[15]
  MIC: 2 µg/mL (≈ 3.44 µM)
[16]; [33]
  MIC: 1 µg/mL (≈ 1.72 µM)
[16]; Bacteroides fragilis, 1877, Bacteroides fragilis 1877, second listing
  MIC: 4 µg/mL (≈ 6.89 µM)
Bacteroides fragilis 2
  MIC: 2 µg/mL (≈ 3.44 µM)
[17]
  MIC: 8 µg/mL (≈ 13.8 µM)
Bacteroides fragilis 113
  MIC: 4 µg/mL (≈ 6.89 µM)
[18]
  MIC: 8 µg/mL (≈ 13.8 µM)
[29]
  MIC: 4 µg/mL (≈ 6.89 µM)
Bacteroides fragilis 111; [34]
  MIC: ≤ 0.5 µg/mL
Bacteroides fragilis 111; Bacteroides fragilis, 111, Bacteroides fragilis 111, second listing
  MIC: 4 µg/mL (≈ 6.89 µM)
[30]
  MIC: 4 µg/mL (≈ 6.89 µM)
[19]
  MIC: 4 µg/mL (≈ 6.89 µM)
Bacteroides fragilis 112
  MIC: 4 µg/mL (≈ 6.89 µM)
